Test results taken from patent US6555375B1, “Methods for somatic embryo formation and plant regeneration of Beta vulgaris” (priority 2000, dated 2003).

Key:
[1] = test system: sugar beet somatic embryos; experiment: Germination of primary somatic embryos on MS medium containing cytokinin; assay type: cell-based, Beta vulgaris
Protocol: The embryos germinated quickly when transferred to fresh medium either supplemented with phytohormones or not. […] These embedded tissues were manually isolated, separated and transferred into liquid medium (MS medium+BAP 0.2 mg/L). The cultures were maintained at constant agitation (100 rpm) in the dark with biweekly changes of the medium. The white embryogenic tissue masses expanded in two weeks and snow-white fresh outgrowths formed on the surface of older tissues (FIG. 2B). Clumps of white embryogenic tissue masses were divided and transferred to fresh medium for further proliferation. A couple of such passages was enough to generate a large number of white clumps. Part of these tissues was used for the optimization of culture medium.

[2] = test system: sugar beet seedling tissues (hypocotyls, cotyledons); experiment: Callus induction from sugar beet seedling explants on MS medium with cytokinin; assay type: cell-based, Beta vulgaris
Protocol: Seeds from three sugar beet lines ACH199 (triploid), ACH31 (triploid) and ACH203 (diploid) were obtained from Crystal and Maribo Beet Seed, Moorehead, Minn. USA. To remove seed covers, Beta vulgaris seeds were soaked in the tap water overnight and then washed under water flow. Seeds were sterilized by sequential treatment with 70% (v/v) ethanol (1 min.), 0.1% (w/v) mercuric chloride (10 min.) and 10% (v/v) household laundry bleach (20 min.) followed by four washes with sterile distilled water. Seeds were then dried on sterile filter paper. All steps were performed in a laminar flow hood.
A series of media which included additional supplements were used for callus induction, embryo proliferation and shoot formation. Phytohormones (BAP, TDZ, NAA, IAA, 2,4-D) were added to the media before autoclaving (120° C. for 20 min.). The basal medium for callus induction and embryogenesis is MS medium comprising MS basal salts, 3% sucrose, 100 mg/L myo-inositol, 0.5 mg/L nicotinic acid, 0.5 mg/L pyridoxine-HCl, 1 mg/L thiamine-HCl and 0.8% (w/v) Difco agar. The basal medium for proliferation of repetitive embryos is MSE (MS basal salts, 100 mg/L myo-inositol, 0.5 mg/L nicotinic acid, 0.5 mg/L pyridoxine-HCl, 1 mg/L thiamine-HCl).
Petri dishes (100 mm×25 mm) containing 25 mL of medium were used for all experiments. Seeds were placed on MS medium, containing either BAP 2 mg/L or TDZ 1 mg/L; plates were sealed and placed in the dark place at 21° C. Cotyledons and hypocotyls (FIG. 1A) were excised from two-week-old seedlings, cut into several pieces, incised and placed on callus induction medium (MS medium supplemented with either 2 mg/L of BAP or 1 mg/l of TDZ). Plates were incubated in the dark at 21° C. Four weeks later, when explants were necrotic and dark brown, colonies of white friable callus appeared on the explant surface (FIG. 1B). Most of the callus formed on hypocotyls. Only a few colonies were found on cotyledons.

[3] = test system: embryogenic tissue masses of sugar beet; experiment: Repetitive embryogenic culture: optimization of proliferation medium; assay type: cell-based, Beta vulgaris; details: for Effect of media on repetitive embryogenic culture (description) / white embryos or white clumps, share of tissues: IV. MSE, sucrose 6%, glycine 2 mg/L, pH 5.7
Protocol: These embedded tissues were manually isolated, separated and transferred into liquid medium (MS medium+BAP 0.2 mg/L). The cultures were maintained at constant agitation (100 rpm) in the dark with biweekly changes of the medium. […] Clumps of white embryogenic tissue masses were divided and transferred to fresh medium for further proliferation. […] Part of these tissues was used for the optimization of culture medium.
The optimization of proliferation medium was conducted through several stages. Each stage lasted for two weeks.

[4] = test system: friable callus of sugar beet; experiment: Shoot/plant regeneration from friable callus; assay type: cell-based, Beta vulgaris
Protocol: For regeneration of embryos, friable callus was transferred to callus regeneration medium (MS medium supplemented with either 1 mg/L of BAP or 1 mg/L of TDZ). The cultures were incubated at 25° C. under a photoperiod of 16 hours of light of cool, white light at an intensity of 30 μmol m^−2s^−1 followed by a 8 hours of darkness. Callus began to grow vigorously, and by the end of the second week, it was possible to distinguish several callus types as well as small embryos (FIG. 1C). Since every seedling was treated as a separate line, quantitative analysis can be applied to the results of the experiments.
All explants of one type from the same line (i.e. only hypocotyls) were able to produce callus, if any did. At the same time, there were only a few cases where callus formed from both cotyledons and hypocotyls of the same seedling (twice in ACH31 and four times in ACH203).

[5] = test system: secondary somatic embryos of sugar beet; experiment: Regeneration of secondary somatic embryos, adventitious shoot formation; assay type: cell-based, Beta vulgaris
Description: Somatic embryos produced as described in Example 3 started to germinate as soon as they were transferred to a medium comprising MS basal salts, 3% sucrose and either BAP or TDZ under light. Regeneration began with green or red coloration of an embryo accompanied by formation of primary leaves and roots (FIG. 2C). Since the regeneration medium contained cytokinins, the primary roots were reduced while the shoots developed (FIG. 2D).
To select the best medium for embryo germination, a series of concentrations of BAP and TDZ was tested. The phenotypic effect of applied phytohormones was estimated after three weeks (FIG. 3).

callus = details: Nielson et al. (1995), Roussy et al. (1996); cited from earlier work

## O=C(Nc1ccccc1)Nc1cnns1 [TDZ, thidiazuron]
[1]
  phenotype of embryos transferred to MS medium containing BAP or TDZ: formed multiple shoots but also retained white embryogenic tissues
[2]
  production of friable callus and shoots, and plants therefrom: callus induction medium comprising TDZ versus BAP: superior
[2]; ACH31
  increase of friable callus formation from hypocotyls, TDZ compared with BAP: two-fold
[2]; Cultivar ACH31, Cotyledons
  %A: number of lines producing callus/total number of lines × 100: 0%
[2]; Cultivar ACH31, Cotyledons, MS + BAP 2 mg/L or TDZ 1 mg/L
  # of lines produced callus: 0
[2]; Cultivar ACH31, Hypocotyls, MS + BAP 2 mg/L or TDZ 1 mg/L
  %A: number of lines producing callus/total number of lines × 100: 45%
[2]; Cultivar ACH31, Hypocotyls, MS + BAP 2 mg/L or TDZ 1 mg/L, dark 21° C.
  # of lines produced callus: 50
[2]; Cultivar ACH203, Cotyledons
  %A: number of lines producing callus/total number of lines × 100: 0%
[2]; Cultivar ACH203, Cotyledons, MS + BAP 2 mg/L or TDZ 1 mg/L
  # of lines produced callus: 0
[2]; Cultivar ACH203, Hypocotyls
  %A: number of lines producing callus/total number of lines × 100: 43%
[2]; Cultivar ACH203, Hypocotyls, MS + BAP 2 mg/L or TDZ 1 mg/L
  # of lines produced callus: 100
[2]; cotyledons
  callus initiation from cotyledons, TDZ compared with BAP: no TDZ-related improvements
[2]; hypocotyls of cultivar ACH203
  callus formation and plant regeneration, TDZ compared with BAP: provided similar results
[2]; two out of three cultivars tested
  rate of callus formation from hypocotyls and plant regeneration from such callus, TDZ compared with BAP: dramatically increased
[3]
  necrosis: did not cause necrosis
  tissue proliferation and anthocyanin production: very quick proliferation of tissue and intensified production of anthocyanins
[3]; phytohormone 0.05 mg/L
  Effect of media on repetitive embryogenic culture (description): Vigorously expanded dark red culture
  white embryos or white clumps, share of tissues: 20%
[3]; phytohormone 0.1 mg/L
  Effect of media on repetitive embryogenic culture (description): Vigorously expanded dark red culture
  white embryos or white clumps, share of tissues: 20%
[3]; phytohormone 1 mg/L
  Effect of media on repetitive embryogenic culture (description): Vigorously expanded dark red culture, no white embryos
[3]; indicated by vigorous growth, red coloration, absence of embryogenic tissue masses
  effect on embryogenic tissues during medium optimization: induced the regeneration of embryos
[4]; ACH31, hypocotyl callus
  increase of plant regeneration from these calli, TDZ compared with BAP: nine-fold
[4]; Cultivar ACH31, Cotyledons
  # of lines produced shoots: 0
  %B: number of lines producing callus and regenerating/total number of lines × 100: 0%
[4]; Cultivar ACH31, Hypocotyls
  %B: number of lines producing callus and regenerating/total number of lines × 100: 9%
[4]; Cultivar ACH31, Hypocotyls, regeneration medium MS + 1 mg/L BAP or TDZ
  # of lines produced shoots: 10
[4]; Cultivar ACH203, Cotyledons
  # of lines produced shoots: 0
  %B: number of lines producing callus and regenerating/total number of lines × 100: 0%
[4]; Cultivar ACH203, Hypocotyls
  # of lines produced shoots: 40
  %B: number of lines producing callus and regenerating/total number of lines × 100: 17%
[5]; TDZ at 0.03 mg/L, concentrations tested 0.03, 0.1, 0.3, 1 and 3 mg/l, after three weeks
  adventitious shoot formation: most effective
[5]; compared with BAP
  inducing the formation of adventitious shoots on Beta vulgaris embryos: superior to BAP
  regeneration, particularly shoot development on Beta vulgaris embryos: superior to BAP
[5]; concentrations higher than 0.03 mg/L
  vitrification of tissues: caused vitrification of tissues
[5]; low concentrations
  vitrification of tissues and adventitious shoots: did not cause vitrification of tissues while producing more adventitious shoots
callus
  callus-inducing effectiveness: more effective callus-inducing agent than BAP
